Measurements published in patent US20250057859A1, “CANNABICHROMENEQUINONE AND ANALOGUES THEREOF, AND METHOD OF USING COMPOSITIONS THEREOF AS ANTI-INFLAMMATORY AGENTS” (Juva Life, Inc., priority 2021, published 2025).
Read-outs that look alike come from different tables or passages of the source.

Columns and labels:
recombinant human LOX-5 = target: T1, recombinant human LOX-5 (Homo sapiens, UniProt P09917); assay: Biochemical LOX-5 assay
T1 construct: expressed in insect cells (Amino Acids 1-674) was obtained from Cayman; purchased Cayman 60402; host or cells: insect cells
T1 sequence (P09917 1-674): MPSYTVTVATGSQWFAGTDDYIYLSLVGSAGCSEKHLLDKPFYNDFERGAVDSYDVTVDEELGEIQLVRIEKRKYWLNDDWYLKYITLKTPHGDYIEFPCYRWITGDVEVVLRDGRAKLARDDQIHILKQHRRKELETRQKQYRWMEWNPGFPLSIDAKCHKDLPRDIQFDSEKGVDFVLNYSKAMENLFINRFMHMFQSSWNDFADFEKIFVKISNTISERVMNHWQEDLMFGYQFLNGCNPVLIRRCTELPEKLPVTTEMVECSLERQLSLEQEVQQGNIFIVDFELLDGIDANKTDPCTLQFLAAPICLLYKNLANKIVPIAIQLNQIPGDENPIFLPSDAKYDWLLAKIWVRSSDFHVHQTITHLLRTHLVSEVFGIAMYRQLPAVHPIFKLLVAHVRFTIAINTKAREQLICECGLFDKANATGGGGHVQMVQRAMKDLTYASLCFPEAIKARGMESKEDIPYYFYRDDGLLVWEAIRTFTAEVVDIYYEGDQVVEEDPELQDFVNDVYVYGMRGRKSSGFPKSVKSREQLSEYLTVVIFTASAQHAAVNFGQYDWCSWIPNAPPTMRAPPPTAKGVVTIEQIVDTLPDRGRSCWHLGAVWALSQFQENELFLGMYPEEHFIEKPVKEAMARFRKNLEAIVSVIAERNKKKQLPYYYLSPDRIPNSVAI
Text: • Active recombinant human LOX-5 protein expressed in insect cells (Amino Acids 1-674) was obtained from Cayman (Cat #60402) • 2′,7′-dichlorodihydrofluorescein diacetate, H2DCFDA, was obtained from Sigma (Cat #96883) • Arachidonic acid, AA, was obtained from Sigma (Cat #A3611) • Other reagents: black 384 well assay plates were obtained from Corning (Cat #3820). • Equipment: Synergy Neo2 Multi-mode plate reader (Biotek), Labcyte 550 acoustic dispenser (Labcyte), Biomek FX robotic dispenser (Beckman Coulter), Sorvall Legend RT centrifuge (Kendro).
The LOX-5 assay was performed in assay buffer comprising: 50 mM Tris (pH 7.5), 2 mM EDTA, 2 mM CaCl2, 3 uM AA, 10 uM ATP, 10 uM H2DCFDA, and recombinant enzyme (50mU per 20 ul reaction, as defined by manufacturer). Serially diluted compounds were prepared in DMSO in Echo qualified 384 well plates. An assay buffer was then prepared without AA and ATP supplemented with 20 uM H2DCFDA. 10 μL of the supplemented buffer was dispensed into control (no enzyme) wells in the black 384well assay plate. Next, a 2× enzyme solution was prepared, comprising 100 mU LOX-5 enzyme in the supplemented assay buffer. 10 uL of the 2× enzyme solution was then dispensed into test wells in the black 384well assay plate. Serially diluted compounds were added to the assay plate by acoustic dispensing (Labcyte 550). Control wells received DMSO only.
Next, the 2× substrate was prepared to comprise 6 uM arachidonic acid and 20 uM ATP in the assay buffer. 10 μL of the 2× substrate was then added to all wells in the assay plate. The plate was incubated for 20 min. The plate was read on Synergy Neo2 in fluorescence mode: excitation 485 nm, emission 530 nm. % inhibition and the resulting IC50 was calculated for the compound using the following equation:
[formula] • where RFU100% is fluorescence in control samples without compound, RFU0% is fluorescence in control samples without LOX-5, and RFUcompound fluorescence in a sample with compound.
The calculated %-Inh values were plotted against compound concentration. To determine IC50 values, dose-response curves were fitted by a 4-parameter sigmoid inhibition model using XLFit® software (IDBS).

IL-1β = assay: Inhibitory activity on IL-1β
IL-10 = IL-10 secretion assay in human PBMCs (PHA-M-stimulated, ELISA); assay type: cell-based; conditions: PBMC, PHA-M 10 ug/mL 40 hr, read-out: IL10 inhibitory activity IC50
Procedure: Fetal bovine serum (FBS) was obtained from ThermoFisher (Cat #16000044). • Other reagents: 96well TC plates were obtained from ThermoFisher (Cat #07-2000-90).
Cryopreserved PBMCs were thawed in a water bath and transferred to 50 mL polypropylene tubes. The cells were washed two times with 25 mL of RPMI medium supplemented with 5% of regular FBS and re-suspended at a density of 1.5×10^6 cells/mL. The cells were plated into 96 well TC plate (100 uL/well). Serially diluted compound was added to the cells in duplicate wells for each concentration. Control wells received DMSO only (0.3% final). The cells were pre-incubated with compound for 2 hr. After pre-incubation, the cells were stimulated by PHA-M (10 ug/mL) for 40 hr. Control samples with and without PHA-M in the absence of compound were assembled in each test plate. IL-10 was detected in media supernatants by using a sandwich anti-IL10 ELISA kit (BD Biosciences) according to protocol provided by the manufacturer. ELISA readout (optical density at 450 nm) is commensurable with the amount of IL-10 produced by the cells. Assay window was determined in each experiment by comparing average OD450 values in stimulated and un-stimulated samples in the absence of compound. ELISA calibration was performed in each detection plate using serially diluted recombinant human IL-10 standard to ensure that OD450 values for all test samples were within linear range of detection.%-Inhibition by compound was calculated using following equation:
[formula] • where OD450100% is optical density in control samples stimulated with PHA-M without compound, OD4500% is optical density in unstimulated control samples, and OD450compound is optical density in a sample stimulated with PHA-M in the presence of compound. The calculated %-Inh values were plotted against compound concentration. To determine IC50 values, dose-response curves were fitted by a 4-parameter sigmoid inhibition model using XLFit® software (IDBS).

[1] = recombinant enzyme, 3 uM AA, read-out: 5-Lox inhibitory activity IC50

CC(C)=CCCC1(C)C=CC2=C(O1)C(=O)c1ccccc1C2=O (stereo not drawn) [Formula XXVII]
IC50 (recombinant human LOX-5): > 10 µM
IC50 (IL-1β): > 10 µM
IC50 (IL-10): > 10 µM

CCCCCC1=C(NCC)C(=O)C2=C(OC(C)(CCC=C(C)C)C=C2)C1=O (stereo not drawn) [Formula XXVIII]
IC50 (recombinant human LOX-5; [1]): > 10 µM
IC50 (IL-1β): > 10 µM
IC50 (IL-10): > 10 µM

CCCCCc1cc(OC(C)=O)c2c(c1OC(C)=O)OC(C)(CCC=C(C)C)C=C2 (stereo not drawn) [Formula XXIII]
IC50 (recombinant human LOX-5; [1]): 2.71 µM
IC50 (IL-1β): 0.97 µM
IC50 (IL-10): 0.92 µM

CCCCCc1cc(OC)c2c(c1OC)OC(C)(CCC=C(C)C)C=C2 (stereo not drawn) [Formula XXIV]
IC50 (recombinant human LOX-5; [1]): > 10 µM
IC50 (IL-1β): > 10 µM
IC50 (IL-10): > 10 µM

CCCCCC1=CC(=O)C2=C(OC(C)(CCC=C(C)C)C=C2)C1=O (stereo not drawn) [Formula II]
IC50 (recombinant human LOX-5; [1]): 0.27 µM
IC50 (IL-1β): 1.72 µM
IC50 (IL-10): 0.78 µM

CCCCCC1=CC(=O)C2=C(O[C@](C)(CCC=C(C)C)C=C2)C1=O [Formula XXVI]
IC50 (recombinant human LOX-5; [1]): 0.23 µM
IC50 (IL-1β): 0.54 µM
IC50 (IL-10): 0.38 µM

CCCCCc1cc(O)c2c(c1O)OC(C)(CCC=C(C)C)C=C2 (stereo not drawn) [Formula XXII]
IC50 (recombinant human LOX-5; [1]): 0.25 µM
IC50 (IL-1β): 3.3 µM
IC50 (IL-10): 0.92 µM

CCCCCC1=C(NCCC)C(=O)C2=C(OC(C)(CCC=C(C)C)C=C2)C1=O (stereo not drawn) [Formula XXV]
IC50 (recombinant human LOX-5; [1]): 1.18 µM
IC50 (IL-1β): > 10 µM
IC50 (IL-10): > 10 µM
